Values quoted from earlier work as cited in US20220339295A1, “FULLERENE GALLIUM P[…] METHODS” (Exothule Inc., priority 2020, published 2022).

What was measured:
[1] = target: transferrin (Homo sapiens, UniProt P02787); conditions: relative to Fe3+
Sequence of transferrin (P02787 20-698, species assumed): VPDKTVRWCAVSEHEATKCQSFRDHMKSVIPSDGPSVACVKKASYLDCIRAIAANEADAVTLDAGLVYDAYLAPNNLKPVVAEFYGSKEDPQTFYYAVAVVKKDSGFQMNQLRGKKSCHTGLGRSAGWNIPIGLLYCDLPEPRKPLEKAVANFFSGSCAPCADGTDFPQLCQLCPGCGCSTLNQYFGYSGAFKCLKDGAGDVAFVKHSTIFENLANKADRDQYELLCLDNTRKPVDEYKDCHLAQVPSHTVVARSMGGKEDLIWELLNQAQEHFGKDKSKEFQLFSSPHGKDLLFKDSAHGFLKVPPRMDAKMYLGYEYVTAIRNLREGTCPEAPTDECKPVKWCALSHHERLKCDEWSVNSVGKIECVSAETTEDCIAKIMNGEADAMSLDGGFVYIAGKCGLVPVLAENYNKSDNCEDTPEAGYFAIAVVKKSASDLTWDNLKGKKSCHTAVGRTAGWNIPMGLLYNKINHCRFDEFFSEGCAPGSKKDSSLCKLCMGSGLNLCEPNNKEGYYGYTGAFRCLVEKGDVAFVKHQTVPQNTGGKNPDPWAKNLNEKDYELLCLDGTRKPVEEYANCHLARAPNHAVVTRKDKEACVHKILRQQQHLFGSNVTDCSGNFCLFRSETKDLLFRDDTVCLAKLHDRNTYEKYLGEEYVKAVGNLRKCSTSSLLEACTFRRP

Q: Which “binding in transferrin, times less effectively than Fe3+” value [1] does the source give for `[Ga]` [gallium] here?
A: 300 times

Q: And the “gallium excreted in urine” value (after 24 hours)?
A: 69%

Q: And the gallium excreted (in 48 hours)?
A: 91%
